# Laboratory results: US4190666A, “Anti-inflammatory 4,5-diarly-2-(substituted-thio)imidazoles and their corresponding sulfoxides and sulfones” (E. I. Du Pont de Nemours and Company, priority 1978, dated 1980)
# Test system: established adjuvant-induced arthritis in rats
# Test: Established adjuvant-induced arthritis in rats (therapeutic, paw volume)
# Format: in vivo, Charles River Lewis male rats
# Details: Rattus norvegicus, po, established arthritis, 7 daily doses, ED50% decrease from control paw volume, Tables I-III, read-out: Adjuvant Arthritis (ED50%)
row,Structure (SMILES),ED50 [mg/kg]
1,"[O-][S+](CC(F)(F)F)c1nc(-c2ccccc2)c(-c2ccccc2)[nH]1 (centres unmarked) [Example 2, 4,5-Diphenyl-2-(2,2,2-trifluoroethylsulfinyl)imidazole]",48
2,"O=S(=O)(CC(F)(F)F)c1nc(-c2ccccc2)c(-c2ccccc2)[nH]1 [Example 3, 4,5-Diphenyl-2-(2,2,2-trifluoroethylsulfonyl)imidazole]",12
3,"FC(F)(F)CSc1nc(-c2ccc(Cl)cc2)c(-c2ccc(Cl)cc2)[nH]1 [Example 7, 4,5-bis(4-Chlorophenyl)-2-(2,2,2-trifluoroethylthio)imidazole]",5
4,"[O-][S+](CC(F)(F)F)c1nc(-c2ccc(Cl)cc2)c(-c2ccc(Cl)cc2)[nH]1 (centres unmarked) [Example 8, 4,5-bis(4-chlorophenyl)-2-(2,2,2-trifluoroethylsulfinyl)imidazole]",3
5,"O=S(=O)(CC(F)(F)F)c1nc(-c2ccc(Cl)cc2)c(-c2ccc(Cl)cc2)[nH]1 [Example 9, 4,5-bis(4-Chlorophenyl)-2-(2,2,2-trifluoroethylsulfonyl)imidazole]",4.5
6,"CCSc1nc(-c2ccc(OC)cc2)c(-c2ccc(OC)cc2)[nH]1 [Example 10, 2-Ethylthio-4,5-bis(4-methoxyphenyl)imidazole]",4.7
7,"C=CCSc1nc(-c2ccc(OC)cc2)c(-c2ccc(OC)cc2)[nH]1 [Example 11, 2-Allylthio-4,5-bis(4-methoxyphenyl)imidazole]",22
8,"CC[S+]([O-])c1nc(-c2ccc(OC)cc2)c(-c2ccc(OC)cc2)[nH]1 (centres unmarked) [Example 13, 2-Ethylsulfinyl-4,5-bis(4-methoxyphenyl)imidazole]",10
9,"CCS(=O)(=O)c1nc(-c2ccc(OC)cc2)c(-c2ccc(OC)cc2)[nH]1 [Example 14, 2-Ethylsulfonyl-4,5-bis(4-methoxyphenyl)imidazole]",5.2
10,"COc1ccc(-c2nc(SC)[nH]c2-c2ccc(OC)cc2)cc1 [Example 15, 4,5-bis(4-Methoxyphenyl)-2-methylthioimidazole]",4.4
11,"COc1ccc(-c2nc(SCC(C)=O)[nH]c2-c2ccc(OC)cc2)cc1 [Example 16, 2-Acetonylthio-4,5-bis(4-methoxyphenyl)imidazole]",9.4
12,"CSc1nc(-c2ccc(Cl)cc2)c(-c2ccc(Cl)cc2)[nH]1 [Example 26, 4,5-bis(4-chlorophenyl)-2-methylthioimidazole]",3
13,CCCSc1nc(-c2ccc(OC)cc2)c(-c2ccc(OC)cc2)[nH]1 [Example 27],9
14,CSc1nc(-c2ccc(F)cc2)c(-c2ccc(F)cc2)[nH]1 [Example 28],3.5
15,COc1ccc(-c2nc(SC(F)F)[nH]c2-c2ccc(OC)cc2)cc1 [Example 29],1.8
16,FC(F)Sc1nc(-c2ccccc2)c(-c2ccccc2)[nH]1 [Example 30],21
17,FC(F)Sc1nc(-c2ccc(Cl)cc2)c(-c2ccc(Cl)cc2)[nH]1 [Example 31],0.35
18,Fc1ccc(-c2nc(SC(F)F)[nH]c2-c2ccc(F)cc2)cc1 [Example 32],0.42
19,CSc1nc(-c2ccc(Cl)cc2)c(-c2ccc(F)cc2)[nH]1 [Example 33],3.8
20,CSc1nc(-c2ccc(C(F)(F)F)cc2)c(-c2ccccc2)[nH]1 [Example 34],20
21,CSc1nc(-c2ccc(F)cc2)c(-c2ccc(C(F)(F)F)cc2)[nH]1 [Example 35],17
22,CSc1nc(-c2ccc(Cl)cc2)c(-c2ccc(C(F)(F)F)cc2)[nH]1 [Example 36],3.6
23,CSc1nc(-c2ccc3c(c2)OCO3)c(-c2ccc3c(c2)OCO3)[nH]1 [Example 37],20

row,Structure (SMILES),ED50 [mg/kg]
1,COc1ccc(-c2nc(SC(F)(F)C(F)F)[nH]c2-c2ccc(OC)cc2)cc1 [Example 38],4.2
2,Fc1ccc(-c2nc(SC(F)(F)C(F)F)[nH]c2-c2ccc(F)cc2)cc1 [Example 40],0.075
3,Fc1ccc(-c2[nH]c(SC(F)(F)C(F)F)nc2-c2ccc(Cl)cc2)cc1 [Example 42],0.18
4,Cc1ccc(-c2nc(SC(F)(F)C(F)F)[nH]c2-c2ccc(C)cc2)cc1 [Example 43],18
5,COc1ccc(-c2nc(SC(F)(F)C(F)F)[nH]c2-c2ccccc2)cc1 [Example 44],20
6,FC(F)C(F)(F)Sc1nc(-c2ccc(Cl)cc2)c(-c2ccccc2)[nH]1 [Example 45],0.3
7,FC(F)C(F)(F)Sc1nc(-c2ccc3c(c2)OCO3)c(-c2ccc3c(c2)OCO3)[nH]1 [Example 46],10
8,FC(F)C(F)(F)Sc1nc(-c2ccc(C(F)(F)F)cc2)c(-c2ccccc2)[nH]1 [Example 47],4.5
9,Fc1ccc(-c2nc(SC(F)(F)C(F)F)[nH]c2-c2ccc(C(F)(F)F)cc2)cc1 [Example 48],1.5
10,Fc1ccc(-c2nc(SC(F)(F)C(F)F)[nH]c2-c2ccccc2)cc1 [Example 49],0.2
11,FC(F)C(F)(F)Sc1nc(-c2ccccc2Cl)c(-c2cccc(Cl)c2)[nH]1 [Example 50],1.2
12,CN(C)c1ccc(-c2nc(SC(F)(F)C(F)F)[nH]c2-c2ccccc2)cc1 [Example 53],2.5
13,C=CC[S+]([O-])c1nc(-c2ccc(OC)cc2)c(-c2ccc(OC)cc2)[nH]1 (centres unmarked) [Example 54],11
14,C=CCS(=O)(=O)c1nc(-c2ccc(OC)cc2)c(-c2ccc(OC)cc2)[nH]1 [Example 55],11
15,COc1ccc(-c2nc([S+](C)[O-])[nH]c2-c2ccc(OC)cc2)cc1 (centres unmarked) [Example 56],6.2
16,COc1ccc(-c2nc(S(C)(=O)=O)[nH]c2-c2ccc(OC)cc2)cc1 [Example 57],6.4
17,C[S+]([O-])c1nc(-c2ccc(Cl)cc2)c(-c2ccc(Cl)cc2)[nH]1 (centres unmarked) [Example 59],2.3
18,CCC[S+]([O-])c1nc(-c2ccc(OC)cc2)c(-c2ccc(OC)cc2)[nH]1 (centres unmarked) [Example 61],13
19,CCCS(=O)(=O)c1nc(-c2ccc(OC)cc2)c(-c2ccc(OC)cc2)[nH]1 [Example 62],9
20,COc1ccc(-c2nc(S(=O)(=O)C(C)C)[nH]c2-c2ccc(OC)cc2)cc1 [Example 63],30
21,[O-][S+](c1nc(-c2ccccc2)c(-c2ccccc2)[nH]1)C(F)(F)C(F)F (centres unmarked) [Example 66],0.18
22,CS(=O)(=O)c1nc(-c2ccc(Cl)cc2)c(-c2ccc(Cl)cc2)[nH]1 [Example 67],2
23,[O-][S+](c1nc(-c2ccc(Cl)cc2)c(-c2ccc(Cl)cc2)[nH]1)C(F)(F)C(F)F (centres unmarked) [Example 68],0.2

row,Structure (SMILES),ED50 [mg/kg]
1,"O=S(=O)(c1nc(-c2ccc(Cl)cc2)c(-c2ccc(Cl)cc2)[nH]1)C(F)(F)C(F)F [Example 69, 4,5-bis(4-chlorophenyl)-2-(1,1,2,2-tetrafluoroethylsulfonyl)imidazole]",0.2
2,O=S(=O)(CC(F)(F)F)c1nc(-c2ccc(F)cc2)c(-c2ccc(F)cc2)[nH]1 [Example 70],3.5
3,CS(=O)(=O)c1nc(-c2ccc(F)cc2)c(-c2ccc(F)cc2)[nH]1 [Example 72],4.5
4,O=S(=O)(c1nc(-c2ccccc2)c(-c2ccccc2)[nH]1)C(F)(F)C(F)Cl (centres unmarked) [Example 73],0.25
5,O=S(=O)(c1nc(-c2ccccc2)c(-c2ccccc2)[nH]1)C(F)F [Example 75],0.35
6,O=S(=O)(c1nc(-c2ccccc2)c(-c2ccccc2)[nH]1)C(F)(F)C(Cl)Cl [Example 76],1.5
7,O=S(=O)(c1nc(-c2ccc(Cl)cc2)c(-c2ccc(Cl)cc2)[nH]1)C(F)F [Example 77],0.35
8,O=S(=O)(c1nc(-c2ccc(F)cc2)c(-c2ccc(F)cc2)[nH]1)C(F)F [Example 78],0.1
9,CS(=O)(=O)c1nc(-c2ccc(Cl)cc2)c(-c2ccc(F)cc2)[nH]1 [Example 79],2.8
10,O=S(=O)(c1nc(-c2ccc(Cl)cc2)c(-c2ccc(F)cc2)[nH]1)C(F)(F)C(F)F [Example 80],0.09
11,Cc1ccc(-c2nc(S(=O)(=O)C(F)(F)C(F)F)[nH]c2-c2ccc(C)cc2)cc1 [Example 81],0.35
12,COc1cccc(-c2nc(S(=O)(=O)C(F)(F)C(F)F)[nH]c2-c2cccc(OC)c2)c1 [Example 84],4
13,CS(=O)(=O)c1nc(-c2ccc(Cl)cc2)c(-c2ccccc2)[nH]1 [Example 85],30
14,CS(=O)(=O)c1nc(-c2ccc(F)cc2)c(-c2ccc(C(F)(F)F)cc2)[nH]1 [Example 87],3.7
15,CS(=O)(=O)c1nc(-c2ccc(Cl)cc2)c(-c2ccc(C(F)(F)F)cc2)[nH]1 [Example 88],2.2
16,O=S(=O)(c1nc(-c2ccc(C(F)(F)F)cc2)c(-c2ccccc2)[nH]1)C(F)(F)C(F)F [Example 89],2.4
17,O=S(=O)(c1nc(-c2ccc(Cl)cc2)c(-c2ccc(C(F)(F)F)cc2)[nH]1)C(F)(F)C(F)F [Example 90],1.8
18,O=S(=O)(c1nc(-c2ccccc2Cl)c(-c2ccccc2Cl)[nH]1)C(F)(F)C(F)F [Example 91],0.8
19,"O=S(=O)(c1nc(-c2ccc(F)cc2)c(-c2ccccc2)[nH]1)C(F)(F)C(F)F [Example 92, 4(or 5)-(4-fluorophenyl)-5(or 4)-phenyl-2-(1,1,2,2-tetrafluoroethylsulfonyl)imidazole]",0.027
20,O=S(=O)(c1nc(-c2cccc(Cl)c2)c(-c2cccc(Cl)c2)[nH]1)C(F)(F)C(F)F [Example 93],0.16
21,[O-][S+](c1nc(-c2ccc(Cl)cc2)c(-c2ccc(Cl)cc2)[nH]1)C(F)F (centres unmarked) [Example 94],0.19

# Same assay, conditions: established arthritis, oral, 7 daily doses; ED50% decrease from control paw volume; Tables I-III
row,Structure (SMILES),Adjuvant Arthritis (ED50%) [mg/kg]
1,FC(Cl)C(F)(F)Sc1nc(-c2ccccc2)c(-c2ccccc2)[nH]1 (centres unmarked) [Example 41],3.9
2,"COc1ccc(-c2nc(SC(F)(F)C(F)Br)[nH]c2-c2ccc(OC)cc2)cc1 (centres unmarked) [Example 51, 2-(2-bromo-1,1,2-trifluoroethylthio)-4,5-bis(4-methoxyphenyl)imidazole]",10
3,"FC(Br)C(F)(F)Sc1nc(-c2ccccc2)c(-c2ccccc2)[nH]1 (centres unmarked) [Example 52, 2-(2-bromo-1,1,2-trifluoroethylthio)-4,5-diphenylimidazole]",11

# Same assay, conditions: established arthritis, oral, 7 daily doses; ED50% decrease from control paw volume; Tables I-III; listed as 122
row,Structure (SMILES),Adjuvant Arthritis (ED50%) [mg/kg]
1,CN(C)c1ccc(-c2nc(SC(F)(F)C(F)F)[nH]c2-c2ccccc2)cc1 [Example 53],4.0
